Data on 2 compounds can be found in patent publication US4745124A, “Orally effective anti-hypertensive agents” (priority 1983, dated 1988).

Molecules are shown by their SMILES. Structures can show the parent of a compound that is named as a salt. Where two headings read alike, the source gives them in different places.

Assay [1] concerns pressor effects of angiotensin I. The assay is described as follows: intravenous effectiveness: blood pressure response to angiotensin I in anesthetized rats. It is filed as in vivo, rat. Conditions: i.v. 1 μmole/Kg, Ex. 247. Here is the method:
Anesthetized rats were prepared as described in Example 228. After the responsiveness of a given rat to angiotensin I was established, the named compound at 2 μmol/kg, in a volume of 15 μl of 0.01N sodium bicarbonate, was injected via a femoral vein. At timed intervals, the effects of angiotensin I, 400 ng/kg, on mean arterial blood pressure were tested. Results are shown below:
Anesthetized rats were prepared as described in Example 231. After the responsiveness of a given rat to angiotensin I was established, the named compound, at 2 μmol/kg, in a volume of 15 μl of 0.01N sodium bicarbonate, was injected via a femoral vein. At timed intervals, the effects of angiotensin I, 400 ng/kg, on mean arterial blood pressure were tested. Results are shown below:
Anesthetized rats were prepared as described in Example 239. The animals were administered the named compound via a femoral vein in 15 μl of 0.01N sodium bicarbonate, after the control response to 400 ng/kg of angiotensin I was measured. […] The time required for recovery of one half of the lost responsiveness to angiotensin I, following injection of the named compound, was designated t1/2. […] Results are shown for two dose levels:
Anesthetized rats were prepared as described in Example 242. The named compound was administered intravenously via a femoral vein, at the stated dose, in 15 μl of 0.01N sodium bicarbonate. The response to intravenous administration was a rapid decrease in responsiveness to Angtiotensin I, 400 ng/kg, followed by a gradual recovery to the pretreatment level of responsiveness. The time required for recovery of one half the lost responsiveness to angiotensin I, following injection of the named compound, is designated t1/2. […] Results are shown for the three dose levels:
The intravenous effectiveness of the named compound was examined by following the procedure described in Example 244 except that 1 μmole/kg of the drug was given intravenously. The results are shown below:
The intravenous effectiveness of the named compound was examined by following the procedure described in Example 246 except that 1 μmole/Kg of the drug was given intravenously.

The test system is the same in assay [2]. The assay is described as follows: oral effectiveness: blood pressure response to angiotensin I in anesthetized rats. Conditions: Rattus norvegicus, oral 10 μmol/kg, Ex. 246, read-out: Blood Pressure Response to 400 ng/kg of Angiotensin I. It is filed as in vivo, rat. The protocol:
Rats (210-290 g body weight) were fasted overnight and then anesthetized with intraperitoneal pentobarbital, 50-60 mg/kg. Tracheostomy was performed and the animals were ventilated mechanically. A cannula was inserted into a femoral vein for injection of angiotensin I or II, and a second cannula was inserted into a common carotid artery for direct measurement of arterial blood pressure. Heparin, 1,000 units, was injected via the femoral vein to prevent coagulation. Blood pressure was measured with a pressure transducer connected to a polygraph. The rats were injected with 80 ng of angiotensin I or angiotensin II in 20 μl of 0.9 g % NaCl; an amount of antiotensin I or II sufficient to raise mean arterial blood pressure by 27-40 mm Hg. After the responsiveness of a given rat to angiotensins I and II was established, compound (I), at 2 or 5 mg/kg (drug dissolved in 0.5 ml of H2 O plus 10 μl of 1N NaHCO3), was given via a stomach tube. At timed intervals, the effects of 80 ng of angiotensin I or angiotensin II on mean arterial blood pressure were tested.
Rats were prepared as described in Example 222. Compound (II) [N-benzoyl-L-phenylalanylthiopropanoyl)-L-proline] was given orally, via a stomach tube, at a dose of 12 mg/kg or 20 mg/kg. Compound (II) was dissolved in 0.5 ml of H2 O plus 10 μl of 1N NaHCO3. In all other respects, the experimental preparations were exactly as described in Example 222.
Rats (210-290 g body weight) were fasted overnight and then anesthetized with intraperitoneal pentobarbital, 50-60 mg/kg. Tracheostomy was performed and the animals were ventilated mechanically. A cannula was inserted into a femoral vein for injection of angiotensin I or II, and a second cannula was inserted into a common carotid artery for direct measurement of arterial blood pressure. Heparin, 1,000 units, was injected via the femoral vein to prevent coagulation. Blood pressure was measured with a pressure transducer connected to a polygraph. The rats were injected with 160 ng of angiotensin I or 80 ng of angiotensin II in 20 μl of 0.9 g % NaCl; an amount of angiotensin I or II sufficient to raise mean arterial blood pressure by 27-40 mm Hg. After the responsiveness of a given rat to angiotensins I and II was established, compound (B) at 10 mg (drug dissolved in 0.5 ml of H2 O plus 10 μl of 1N NaHCO3), was given via a stomach tube. At timed intervals, the effects of 160 ng of angiotensin I or 80 ng of angiotensin II on mean arterial blood pressure were tested. Results are shown below:
Rats (210-290 g body weight) were fasted overnight and then anesthetized with intraperitoneal pentobarbital, 50-60 mg/kg. Tracheostomy was performed and the animals were ventilated mechanically. A cannula was inserted into a femoral vein for injection of angiotensin I, and a second cannula was inserted into a common carotid artery for direct measurement of arterial blood pressure. Heparin, 1,000 units, was injected via the femoral vein to prevent coagulation. Blood pressure was measured with a pressure transducer connected to a polygraph. The rats were injected with 400 ng/kg of angiotensin I in 20 μl of 0.9 g % NaCl; an amount of angiotensin I sufficient to raise mean arterial blood pressure by 39 mm Hg. After the responsiveness of a given rat to angiotensin I was established, the named compound at 17 μmol/kg (drug dissolved in 0.15 ml of H2 O plus 10 μl of 1N NaHCO3), was given via a stomach tube. At timed intervals, the effects of 400 ng/kg of angiotensin I on mean arterial blood pressure were tested. Results are shown below:
Rats (190-290 g body weight) were fasted overnight and then anesthetized with intraperitoneal pentobarbital, 50-60 mg/kg. Tracheostomy was performed and the animals were ventilated mechanically. A cannula was inserted into a femoral vein for injection of angtiotensin I, and a second cannula was inserted into a common carotid artery for direct measurement of arterial blood pressure. […]

Turning to `C[C@H](CSC(=O)C(Cc1ccccc1)NC(=O)c1ccccc1)C(=O)N1CCC[C@H]1C(=O)O` (stereo partly drawn) [potassium salt of N-alpha[3-(N-alpha-benzoyl-D,L-phenylalanylthio)-2-D-methylpropanoyl]-L-proline], the “Blood Pressure Response to 400 ng/kg of Angiotensin I” value in assay [1] (5 min) was 46 % of Control; in assay [1] (10 min), 37 % of Control; in assay [1] (15 min), 41 % of Control; in assay [1] (20 min) it was 37 % of Control; in assay [1] (30 min) it was 44 % of Control; in assay [1] (40 min), 50 % of Control. Further, the “Blood Pressure Response to 400 ng/kg of Angiotensin I” value in assay [1] (50 min) is on record as 39 % of Control; in assay [1] (60 min) it was 46 % of Control; in assay [1] (90 min), 52 % of Control; in assay [1] (120 min), 59 % of Control.

`C[C@H](CSC(=O)C(Cc1ccccc1)NC(=O)c1ccccc1)C(=O)N1CCC[C@H]1C(=O)O` (stereo partly drawn) [sodium salt of N-alpha[3-(N-alpha-benzoyl-D,L-phenylalanylthio)-2-D-methylpropanoyl]-L-proline]: the response vs control in vivo at 10 µmol/kg in assay [2] (5 min, 5 min) is 82%; in assay [2] (10 min, 10 min), 33%; in assay [2] (0.25 h, 15 min), 24%; in assay [2] (20 min, 20 min), 27%; in assay [2] (0.5 h, 30 min) it was 27%; in assay [2] (40 min, 40 min), 22%. In addition, the response vs control in vivo at 10 µmol/kg in assay [2] (50 min, 50 min) was 24%; in assay [2] (1 h, 60 min), 27%; in assay [2] (1.5 h, 90 min), 36%; in assay [2] (2 h, 120 min) it was 44%; in assay [2] (2.5 h, 150 min), 62%; in assay [2] (3 h, 180 min), 60%. Moreover, the response vs control in vivo at 10 µmol/kg stood at 71% in assay [2] (3.5 h, 210 min) and 73% in assay [2] (4 h, 240 min).
